From patent publication US20050004007A1, “Promotion of adoptosis in cancer cells by co-administration of cyclin dependent kinase inhibitiors and cellular differentiation agents” (priority 2000, published 2005) come the findings set out here.

Format in all cases: cell-based, human
One assay concerns p21WAF1/CIP1. Briefly: Western analysis of p21WAF1/CIP1 expression in U937 cells. The note with it: for p21WAF1/CIP1 levels: 1 mM SB, 100 nM FP, 1-24 hr. The protocol: Western analysis. Equal quantities of protein (15 μg/condition for MAPK, 40 μg/condition for cytochrome c, or 25 μg/condition) were separated by SDS-PAGE [underphosporylated pRB (7.5%), poly(ADP-ribose)polymerase or PARP (8.0%), p44/p42 MAPK (10%), p21, p27, procaspase 3 (12%), and cytochrome c (15%)] and electroblotted onto nitrocellulose. Western analysis of p44/p42 MAPK protein was performed according to the manufacturer's instructions (New England Biolabs); otherwise, studies were performed as previously described [Wang et al, 1998]. Briefly, U937 cells (5×10^6) were pelleted by centrifugation, resuspended in 50 μl PBS, lysed by the addition of 2× Laemmli buffer and boiled for 5 min. Proteins were quantified with Coomassie protein assay reagent. Blots were blocked in PBS-T/5% milk, washed twice with PBS-T, and incubated overnight at 4° C. with the appropriate primary antibody. The blots were washed with PBS-T and incubated with a horseradish-peroxidase conjugated secondary antibody diluted appropriately in PBS-T/5% mill. Following incubation, blots were developed by enhanced chemiluminescence exposure to Kodak X-OMAT film (Eastman Kodak Co., Rochester, N.Y.) and reprobed with antibodies directed against actin to control for equal loading of protein.
Alternatively, whole cell-pellets were washed twice in PBS, resuspended in PBS, and lysed by the addition of I volume of loading buffer. Lysates were boiled for 10 min, centrifuged at 12,800 g for 5 min and quantified using Coomassie protein assay reagent (Pierce, Rockfold, Ill.). 25 μg of total proteins per point were separated by SDS-PAGE and electro-blotted to nitrocellulose. The blots were blocked in 5% non-fat milk in PBS-T and probed for 1 h with the appropriate dilution of primary antibody. Blots were washed 3×10 min in PBS-T and then incubated with a 1:2000 dilution of peroxidase-conjugated secondary antibody for 1 h at room temperature. Blots were again washed 3×10 min in PBS-T and then developed by enhanced chemiluminesence. Where indicated, blots were stripped and re-probed with antibodies directed against actin.
Primary antibodies for both p21^WAF1/CIP1 and p27^KIP1 (Transduction Laboratories, Lexington, Ky.) were used in a 1:1000 dilution; PARP (1:1000; Oncogene Research Products, Cambridge, Mass.); pro-caspase 3 (1:1000; Transduction Laboratories); cytochrome c (1:2000; Pharmingen); bcl-2 (1:2000; DAKO, Denmark); bax (1:1000; Santa Cruz Biotechnology, Inc., Santa Cruz, Calif.); bid (1:1000; Cell Signaling, Beverly, Mass.); XIAP (1:1000; Cell Signaling); Mcl-1 (1:1000; Pharmingen); bak (1:1000; Calbiochem); c-Myc (1:1000; Pharmingen, San Diego, Calif.); actin (1:2000; Sigma Chemicals, St. Louis, Mo.); cyclins-D1, -A and -E (1:1000; Pharmingen); pRb, underP-pRb, pRb-CDK2 and pRb-CDK4 (all 1:1000; Pharmingen); Ac-H3 and Ac-H4 (both 1:1000; Upstate Biotechnology, Lake Placid, N.Y.); E2F-1 (Upstate Biotechnology). Secondary antibodies conjugated to horseradish peroxidase were obtained from Kirkegaard and Perry Laboratories, Inc. (Gaithersburg, Md.). Coomassie protein assay reagent was purchased from Pierce (Rockford, Ill.), and an enhanced chemiluminescence kit was obtained from New England Nuclear (Boston, Mass.). The pan-caspase inhibitor BOC-D-fmk and the caspase 8 inhibitor Z-IETD-fmk were purchased from Enzyme System Products (Livermore, Calif.) All other chemicals or reagents were purchased from Sigma.

For assay [1], the system named is U937 cells. Briefly: cytochrome c release into the cytosol. The following applies: FP 100 nM; for cytochrome c release: SB 1 mM, alone from 1 hr, both drugs ≧6 hr. The protocol: Cytochrome c release. The assay for cytochrome c release was performed as previously described by Single et al. [1998] with modifications. At designated times following drug treatment, 4×10^6 cells were washed with PBS and resuspended in 50 μl of assay buffer (75 mM NaCl, 1 mM NaH2P0^4, 8 mM Na2HP0^4, 1 mM EDTA, 250 mM sucrose) containing digitonin (700 μg/ml). Three minutes following addition of digitonin assay buffer, cells were pelleted by centrifugation. The supernatants were transferred to tubes containing 2× Laemmli buffer (50 μl) and boiled for 5 minutes. Proteins were separated by SDS-PAGE as described above.
Analysis of cytosolic cytochrome c. A previously described technique was employed.^32 After treatment, cells (5×10^7/condition) were harvested by centrifugation at 600 g for 10 min at 4° C. The S-100, or cytosolic fraction, was prepared as described with minor modifications. Cell pellets were washed once with ice-cold phosphate-buffered saline and resuspended in five volumes of buffer A (20 mM Hepes-KOH, pH 7.5, 10 mM KCl, 1.5 mM MgCl2, 1 mM sodium EDTA, 1 mM sodium EGTA, 1 mM dithiothreitol, 0.1 mM phenylmethlysufonyl fluoride, and 250 mM sucrose; all Sigma. After chilling for 30 min on ice, the cells were disrupted by 15 strokes of a Potter-Elvehjem (PTFE-pestle) homogenizer. The homogenate was then centrifuged twice to remove unbroken cells and nuclei (3000 g for 10 min at 4° C.). The resulting supernatant was further centrifuged at 100,000 g for 1 h at 4° C., and the supernatants, designated as S-100 fractions, were immediately subjected to Western analysis as described above. For each condition, 25 μg of the S-100 fraction was loaded on the gel, and probed with the corresponding antibody.

For assay [2], the system named is U937 cells. Briefly: loss of mitochondrial membrane potential (DiOC6 uptake, flow cytometry). The following applies: for percentage of cells displaying a loss of Δψm: 100 nM FP, 1 mM SB, 12 or 24 hr. The procedure: Assessment of mitochondrial membrane potential. At designated times, 1 ml aliquots of cells (2×10^5) were harvested and incubated with 40 nM DiOC6 for 15 minutes at 25° C. as previously described [Zamzami et al 1995]or at 37° C. Samples were analyzed using a Becton Dickinson FACScan flow cytometer (excitation λ=488 nm; emission λ=525 nm). […] Data acquisition and analysis was performed using […] Software (Becton Dickinson, Mansfield, Mass.).
In general terms: In flow cytometry, cells or beads pass a laser one at a time.

As to `CCCC(=O)[O-].[Na+]` [SB, sodium butyrate], the p21WAF1/CIP1 levels entry with p21WAF1/CIP1 is “time-dependent increase”. In addition, the cytochrome c release entry with U937 cells [1] is “increased modestly”. In the assay with U937 cells [2], the “percentage of cells displaying a loss of Δψm” value is on record as “no effect”.
Consider `CN1CC[C@H](c2c(O)cc(O)c3c(=O)cc(-c4ccccc4Cl)oc23)[C@H](O)C1` [FP, Flavopiridol], for which the p21WAF1/CIP1 expression entry in the assay on p21WAF1/CIP1 (10 nM PMA, FP 50-100 nM, 24 h) is “no effect”. In addition, the p21WAF1/CIP1 levels result with p21WAF1/CIP1 was “did not modify”. The “release of cytochrome c into the cytosol” value in the assay on U937 cells [1] (PMA 10 nM, 6 h) is “some effect”. The cytochrome c release result with U937 cells [1] is given as “increased modestly”. Further, in the assay with U937 cells [2], the “percentage of cells displaying a loss of Δψm” value is reported as “modest increase”. Further, the “loss of mitochondrial membrane potential (Δψm)” value with U937 cells [2] (1 and 1.5 μM SAHA and FP (100 nM)) was “no effect”; in the assay on U937 cells [2] (FP 100 nM, PMA 10 nM, 4-8 h exposure), “reductions were noted”.
